Measurements published in patent publication US20250242170A1, “Methods and Systems for Improving Photodynamic Therapy by Increasing Depth of Penetration Without Concurrently Increasing Energy Deposition” (priority 2024, published 2025).

What was measured:
Glioblastoma multiforme = assay: Use case: PDT and SONG laser in treatment of glioblastoma multiforme; type: in vivo, human
Excerpt: The process is further described within a use case scenario of treating a person diagnosed with glioblastoma multiforme. Glioblastoma multiforme is the most aggressive of the brain cancers characterized by rapid growth and extensions throughout the brain making it surgically incurable. Prognosis without treatment is usually 3 months and with maximum treatment only 18 months. The conventional treatment protocol is neurosurgical debulking, targeted and whole brain radiation, followed by 6 months of chemotherapy with Temodar. After these treatments have been exhausted and disease recurs the prognosis is very poor and short term.
The patient described in the stated use case received debulking neurosurgery, targeted radiation to the areas of visible mass, followed by whole brain radiation, and then 6 months of Temodar. After these treatments they suffered memory loss and emotional instability.
A month after completing their last cycle of chemotherapy, the patient received the SONG Laser-based photodynamic therapy in accordance with the present specification, using ICG as the photo-active compound. On days 1, 2, and 3 of the treatment, the patient received 50 mg of nanoscaled or liposomal ICG. On day 3 they were treated with a SONG laser device at 810 nm near infra-red with a primary beam power of 5 Watts. From the peak power measured after going through the beam expander and SONG generator of 3.5 Watts this was reduced 60% to a measured output power of 1.4 Watts. The treated laser was applied in a beam expanded to 25 mm to the whole brain transcutaneously for 12 minutes total duration, by slowly scanning the 25 mm beam systematically over the skull under which brain substance is located. […]
In the mentioned use case, an additional adjunct to the patient's PDT treatment included administering SONG Laser activated and guided very small embryonic-like (VSEL) stem cells 3 days before the PDT cycle began. […] This procedure with SONG Laser activated and guided VSELs was repeated 1 day before the PDT procedure, except with 2.7 times the quantity of VSELs.

prostate neoplasia = assay: Use case: PDT and SONG laser in treatment of prostate neoplasia; settings: a few weeks after treatment
[1] = same methylene blue + SONG laser protocol

SMILES	MRI scan repeated, recurrence (Glioblastoma multiforme; 4 months after completing last chemotherapy, same ICG + SONG laser 810 nm protocol)	MRI scan, recurrence of Glioblastoma multiforme (Glioblastoma multiforme; a month after PDT, 50 mg nanoscaled or liposomal ICG on days 1, 2, 3, SONG laser 810 nm, 1.4 W output, whole brain, 12 min on two days, adjunct laser-activated VSELs)	memory and mood (Glioblastoma multiforme; over the next 2 months after the first MRI, same ICG + SONG laser protocol)	reduction of PSA (prostate neoplasia; 50 mg orally and also intra-rectally, 1 h wait, SONG laser 660 nm, 80 mW output, through the perineum, 10 min, PSA of 16 before) [%]	PSA level after treatment (prostate neoplasia; PSA of 16 before, same methylene blue + SONG laser protocol)	adverse effects (prostate neoplasia; [1])	urinary symptoms (prostate neoplasia; [1])
CC1(C)C(/C=C/C=C/C=C/C=C2\N(CCCCS(=O)(=O)O)c3ccc4ccccc4c3C2(C)C)=[N+](CCCCS(=O)(=O)[O-])c2ccc3ccccc3c21 [ICG, Indocyanine Green]	no evidence of recurrence	no evidence of recurrence	improvements in their memory and mood				
CN(C)c1ccc2nc3ccc(=[N+](C)C)cc-3sc2c1 [methylene blue, Methylene Blue]				50	8	no adverse effects	improvements in urinary symptoms
